Reference: ChEMBL document CHEMBL1153579, “Knowledge based identification of MAO-B selective inhibitors using pharmacophore and structure based virtual screening models” (Eur J Med Chem, 2009)

Target: T1, Amine oxidase [flavin-containing] B (Homo sapiens, UniProt P27338)
T1 sequence (P27338 whole entry): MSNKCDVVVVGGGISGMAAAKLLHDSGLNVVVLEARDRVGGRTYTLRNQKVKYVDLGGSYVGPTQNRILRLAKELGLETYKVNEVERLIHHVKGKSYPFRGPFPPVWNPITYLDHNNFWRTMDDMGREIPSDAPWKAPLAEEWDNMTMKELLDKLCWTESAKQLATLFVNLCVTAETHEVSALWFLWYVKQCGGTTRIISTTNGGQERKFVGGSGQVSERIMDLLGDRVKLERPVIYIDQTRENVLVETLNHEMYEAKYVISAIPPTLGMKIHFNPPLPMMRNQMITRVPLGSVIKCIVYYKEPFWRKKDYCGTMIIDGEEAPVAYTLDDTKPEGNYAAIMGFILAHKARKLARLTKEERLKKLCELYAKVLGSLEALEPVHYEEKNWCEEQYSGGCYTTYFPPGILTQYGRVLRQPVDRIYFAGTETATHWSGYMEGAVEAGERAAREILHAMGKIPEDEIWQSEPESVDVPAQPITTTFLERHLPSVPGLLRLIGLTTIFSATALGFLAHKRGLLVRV
Assay: Inhibition of MAOB

Going from `COc1ccc(C2=NN(C(=S)Nc3ccccc3)C(c3cccs3)C2)cc1` (configuration not stated) to `CCNC(=S)N1N=C(c2ccc(OC)cc2)CC1c1cccs1` (configuration not stated), the IC50 falls from 92 µM to 22 µM (4.2-fold).

First: Oc1ccc(/C=C\c2cc(O)cc(O)c2)cc1 [CIS-RESVERATROL]
Second: COc1cc(O)ccc1O
The IC50 of the first is 6.9-fold higher: 61 µM for the first, 8.9 µM for the second. The second is the more potent here.

Compared with `C=CCNC(=S)N1N=C(c2ccc(C)cc2)CC1c1cccs1` (configuration not stated), `C=CNC(=S)N1N=C(c2ccc(OC)cc2)CC1c1cccs1` (configuration not stated) is 3.7-fold lower in IC50: 240 µM for the first, 65 µM for the second.

`Cc1ccc(C2(F)CC2N)cc1` (configuration not stated) and `NC1CC1(F)c1ccccc1` (configuration not stated) are within 1.5-fold of each other in IC50: 13 µM for the first, 19 µM for the second.

First: COc1ccc(C2=NN(C(C)=O)C(c3ccccc3C)C2)c(OC)c1 (configuration not stated)
Second: COc1ccc(C2CC(c3ccccc3)=NN2C(C)=O)cc1OC (configuration not stated)
The IC50 of the first is 1.6-fold higher: 40 µM for the first, 25 µM for the second.

First: CC(=O)NC[C@H]1CN(c2ccc(N3CCOCC3)c(F)c2)C(=O)O1 [LINEZOLID]
Second: CCOC(=O)/C=C/c1ccc(O)c(OC)c1 [ETHYL FERULATE]
The IC50 of the first is 2.5-fold higher: 17 µM for the first, 6.7 µM for the second.
